pIC50: −log10 of the molar value.
The molecules below were run against T1, Human CARM1 (PRMT4) (Homo sapiens, UniProt Q86X55) (assay: CARM1 enzyme assay on peptide substrate (3H-SAM Flashplate)). Settings: CARM1 0.25 nM, 3H-SAM 30 nM, peptide 250 nM; read-out: Biochem IC50.
T1 construct: Flag-CARM1-His was eluted with 200 ug/ml FLAG peptide in buffer A; made in house; host or cells: HEK 293F cells infected with recombinant baculovirus (pFastBacMam)
Format: biochemical
Text: S-adenosylmethionine (SAM), S-adenosylhomocysteine (SAH), bicine, Tween20, dimethylsulfoxide (DMSO), bovine skin gelatin (BSG), sodium butyrate and Tris(2-carboxyethyl)phosphine hydrochloride solution (TCEP) were purchased from Sigma-Aldrich at the highest level of purity possible. ^3H-SAM was purchase from American Radiolabeled Chemicals with a specific activity of 80 Ci/mmol. 384-well streptavidin Flashplates were purchased from PerkinElmer.
Peptide representative of human histone H3 residues 16-30 was synthesized with an N-terminal linker-affinity tag motif and a C-terminal amide cap by 21st Century Biochemicals. The peptide was purified by high-performance liquid chromatography (HPLC) to greater than 95% purity and confirmed by liquid chromatography mass spectrometry (LC-MS). The sequence was Biot-Ahx-[…]-amide and contained a monomethylated arginine at position 26 (SEQ ID NO.:1).
Human CARM1 (PRMT4) (NM_199141.1) transcript clone was amplified from an HEK 293 cDNA library, incorporating a flanking 5′ sequence encoding a FLAG tag ([…]) (SEQ ID NO.:2) fused directly to Ala 2 of CARM1 and 3′ sequence encoding a hexa His sequence ([…]) (SEQ ID NO.:3) fused directly to Ser 608. The gene sequence encoding isoform1 containing a deletion of amino acids 539-561 was amplified subsequently and subcloned into pFastBacMam (Viva Biotech).
Recombinant baculovirus were generated according to Bac-to-Bac kit instructions (Life Technologies). Protein over-expression was accomplished by infecting exponentially growing HEK 293F cell culture at 1.3×10^6 cell/ml with virus (MOI=10) in the presence of 8 mM sodium butyrate. Infections were carried out at 37° C. for 48 hours, harvested by centrifugation, and stored at −80° C. for purification.
Column was washed with 500 mM NaCl in buffer A and Flag-CARM1-His was eluted with 200 ug/ml FLAG peptide in buffer A. Pooled fractions were dialyzed in 20 mM Tris, 150 mM NaCl, 5% glycerol and 1 mM DTT, pH 7.8. The purity of recovered protein was 94.
The assays were all performed in a buffer consisting of 20 mM Bicine (pH=7.6), 1 mM TCEP, 0.005% BSG, and 0.002% Tween 20, prepared on the day of use. Compounds in 100% DMSO (1 ul) were spotted into a polypropylene 384-well V-bottom plates (Greiner) using a Platemate Plus outfitted with a 384-channel head (Thermo Scientific). DMSO (1 ul) was added to Columns 11, 12, 23, 24, rows A-H for the maximum signal control and 1 ul of SAH, a known product and inhibitor of CARM1, was added to columns 11, 12, 23, 24, rows I—P for the minimum signal control. A cocktail (40 ul) containing the CARM1 enzyme was added by Multidrop Combi (Thermo-Fisher). The compounds were allowed to incubate with CARM1 for 30 min at room temperature, then a cocktail (10 ul) containing ^3H-SAM and peptide was added to initiate the reaction (final volume=51 ul). The final concentrations of the components were as follows: CARM1 was 0.25 nM, ^3H-SAM was 30 nM, peptide was 250 nM, SAH in the minimum signal control wells was 1 mM, and the DMSO concentration was 2%. The assays were stopped by the addition of non-radiolabeled SAM (10 ul) to a final concentration of 300 uM, which dilutes the ^3H-SAM to a level where its incorporation into the peptide substrate is no longer detectable. 50 ul of the reaction in the 384-well polypropylene plate was then transferred to a 384-well Flashplate and the biotinylated peptides were allowed to bind to the streptavidin surface for at least 1 hour before being washed once with 0.1% Tween20 in a Biotek ELx405 plate washer. The plates were then read in a PerkinElmer TopCount plate reader to measure the quantity of ^3H-labeled peptide bound to the Flashplate surface, measured as disintegrations per minute (dpm) or alternatively, referred to as counts per minute (cpm).
where dpm=disintegrations per minute, cmpd=signal in assay well, and min and max are the respective minimum and maximum signal controls. […]

T1 sequence (Q86X55 other isoform, or with tags, fused parts or gaps): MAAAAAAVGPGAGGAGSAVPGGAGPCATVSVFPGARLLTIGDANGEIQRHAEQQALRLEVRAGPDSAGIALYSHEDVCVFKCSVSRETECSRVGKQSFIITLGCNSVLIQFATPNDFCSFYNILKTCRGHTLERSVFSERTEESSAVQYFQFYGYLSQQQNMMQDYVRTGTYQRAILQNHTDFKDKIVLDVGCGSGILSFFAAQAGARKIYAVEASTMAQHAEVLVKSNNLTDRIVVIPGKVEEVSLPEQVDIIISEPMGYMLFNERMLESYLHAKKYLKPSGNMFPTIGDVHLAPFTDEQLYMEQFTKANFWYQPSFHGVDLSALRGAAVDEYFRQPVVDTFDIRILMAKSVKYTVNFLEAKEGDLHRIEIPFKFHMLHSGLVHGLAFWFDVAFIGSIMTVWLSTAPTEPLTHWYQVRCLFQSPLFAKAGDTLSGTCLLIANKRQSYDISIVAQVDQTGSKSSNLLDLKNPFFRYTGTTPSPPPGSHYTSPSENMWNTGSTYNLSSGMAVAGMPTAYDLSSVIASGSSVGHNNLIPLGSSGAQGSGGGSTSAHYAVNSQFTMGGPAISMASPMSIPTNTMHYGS

Row | pIC50 | SMILES
1 | > 7.00 | CCN(c1cc(-c2cc(OC)cc(OCC(O)CN)c2)nc2c(C(C)C)cnn12)C1CCOCC1 (stereo not shown) [Example 14-8]
2 | > 7.00 | CNCC(O)COc1cc(OC)cc(-c2cc(NC3CCOCC3)c3cnn(C(C)C)c3n2)c1 (stereo not shown) [Example 14-4]
3 | > 7.00 | CNCC(O)COc1cccc(-c2cc(NC3CCOCC3)n3ncc(C(C)(C)C)c3n2)c1 (stereo not shown) [Example 19-6]
4 | > 7.00 | CNCC(O)COc1cc(OC)cc(-c2cc(N(C)C3CCOCC3)n3ncc(C4CC4)c3n2)c1 (stereo not shown) [Example 2-9]
5 | > 7.00 | CNCC(O)COc1cccc(-c2nc(NCc3cnn(C)c3)c3cnn(C(C)(C)C)c3n2)c1 (stereo not shown) [Example 8-8]
6 | > 7.00 | CNCC(O)COc1cc(Cl)cc(-c2cc(N(C)[C@H]3CCOC3)n3ncc(C(C)C)c3n2)c1 (stereo partly shown) [Example 41-6]
7 | 6.00 to 7.00 | CCOC(=O)c1c(-c2cccc(OCC(O)CNC)c2)nc2c(cnn2C(C)C)c1N1CCOCC1 (stereo not shown) [Example 1-5]
8 | > 7.00 | CNCC(O)COc1cc(Cl)cc(-c2cc(N3CC4(CCOCC4)C3)n3ncc(C(C)C)c3n2)c1 (stereo not shown) [Example 50-6]
9 | > 7.00 | CNCC(O)COc1cc(OC)cc(-c2cc(N3CC(CO)(CCl)C3)n3ncc(C(C)C)c3n2)c1 (stereo not shown) [Example 52-6]
10 | > 7.00 | CC(C)n1ncc2c(N3CCOCC3)nc(-c3cccc(OCC(O)CN)c3)nc21 (stereo not shown) [Example 6-5]
11 | > 7.00 | CNCC(O)COc1cc(OC)cc(-c2cc(N(C)c3cncnc3)c3cnn(C(C)C)c3n2)c1 (stereo not shown) [Example 3-4]
12 | > 7.00 | CNCC(O)COc1cccc(-c2cc(NCc3c(C)cc(C)nc3OC)c3cnn(C(C)C)c3n2)c1 (stereo not shown) [Example 6-9]
13 | > 7.00 | CNCC(O)COc1cc(OC)cc(-c2cc(N3CCOCC3)nc3c(C4CC4)cnn23)c1 (stereo not shown) [Example 3-7]
14 | 6.00 to 7.00 | CNCC(O)COc1cc(-c2cc(N3CCOCC3)c3cnn(C(C)C)c3n2)cc(C2CC2)c1 (stereo not shown) [Example 12-4]
15 | > 7.00 | CNCC(O)COc1cc(OC)cc(-c2cc(N(C)[C@H]3CCOC3)n3ncc(C(C)C)c3n2)c1 (stereo partly shown) [Example 36-6]
16 | 6.00 to 7.00 | CNCC(O)COc1cccc(-c2nc(NCc3ccn(C)n3)c3cnn(C4CC4)c3n2)c1 (stereo not shown) [Example 25-5]
17 | 6.00 to 7.00 | Cn1ccc(CNc2nc(-c3cccc(OCC(O)CN)c3)nc3c2cnn3C2CC2)n1 (stereo not shown) [Example 14-5]
18 | > 7.00 | CNCC(O)COc1cc(NC)cc(-c2cc(NC3CCOCC3)c3cnn(C(C)C)c3n2)c1 (stereo not shown) [Example 13-4]
19 | > 7.00 | CNCC(O)COc1cccc(-c2cc(N[C@H]3CCOC3)n3ncc(C(C)C)c3n2)c1 (stereo partly shown) [Example 10-6]
20 | > 7.00 | CNCC(O)COc1cccc(-c2nc(N(C)C3CCOCC3)c3cnn(C(C)(C)C)c3n2)c1 (stereo not shown) [Example 36-5]
21 | > 7.00 | CNCC(O)COc1cc(OC)cc(-c2cc(-c3cnc4[nH]ccc4c3)c3cnn(C(C)C)c3n2)c1 (stereo not shown) [Example 5-9]
22 | 6.00 to 7.00 | NCC(O)COc1cccc(-c2nc(NCc3ccncc3)c3cnn(C4CC4)c3n2)c1 (stereo not shown) [Example 12-5]
23 | 6.00 to 7.00 | CN(c1cc(-c2cccc(OCC(O)CN)c2)nc2c(C(C)(C)C)cnn12)C1CCOCC1 (stereo not shown) [Example 10-9]

These molecules were tested on asymmetric di-methyl PABP1 in RKO cells (assay: RKO methylation assay (In Cell Western for asymmetric di-methyl PABP1)). Settings: Homo sapiens, 48 hours incubation, read-out: Cellular IC50.
Format: cell-based
How it was run: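 RKO cells treated 48 h at 37 °C, then fixed, methanol-permeabilized and probed for asymmetric di-methyl PABP1 (16 h, 4 °C) with DRAQ5 counterstain; 800/700 nm intensity ratio read.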

Row | pIC50 | SMILES
24 | < 4.70 | CCN(c1cc(-c2cc(OC)cc(OCC(O)CN)c2)nc2c(C(C)C)cnn12)C1CCOCC1 (stereo not shown) [Example 14-8]
25 | < 4.70 | CNCC(O)COc1cc(OC)cc(-c2cc(NC3CCOCC3)c3cnn(C(C)C)c3n2)c1 (stereo not shown) [Example 14-4]
26 | < 4.70 | CNCC(O)COc1cccc(-c2cc(NC3CCOCC3)n3ncc(C(C)(C)C)c3n2)c1 (stereo not shown) [Example 19-6]
27 | < 4.70 | CNCC(O)COc1cc(OC)cc(-c2cc(N(C)C3CCOCC3)n3ncc(C4CC4)c3n2)c1 (stereo not shown) [Example 2-9]
28 | < 4.70 | CNCC(O)COc1cccc(-c2nc(NCc3cnn(C)c3)c3cnn(C(C)(C)C)c3n2)c1 (stereo not shown) [Example 8-8]
29 | < 4.70 | CNCC(O)COc1cc(Cl)cc(-c2cc(N(C)[C@H]3CCOC3)n3ncc(C(C)C)c3n2)c1 (stereo partly shown) [Example 41-6]
30 | < 4.70 | CCOC(=O)c1c(-c2cccc(OCC(O)CNC)c2)nc2c(cnn2C(C)C)c1N1CCOCC1 (stereo not shown) [Example 1-5]
31 | < 4.70 | CNCC(O)COc1cc(Cl)cc(-c2cc(N3CC4(CCOCC4)C3)n3ncc(C(C)C)c3n2)c1 (stereo not shown) [Example 50-6]
32 | < 4.70 | CNCC(O)COc1cc(OC)cc(-c2cc(N3CC(CO)(CCl)C3)n3ncc(C(C)C)c3n2)c1 (stereo not shown) [Example 52-6]
33 | < 4.70 | CC(C)n1ncc2c(N3CCOCC3)nc(-c3cccc(OCC(O)CN)c3)nc21 (stereo not shown) [Example 6-5]
34 | 4.70 to 5.00 | CNCC(O)COc1cc(OC)cc(-c2cc(N(C)c3cncnc3)c3cnn(C(C)C)c3n2)c1 (stereo not shown) [Example 3-4]
35 | < 4.70 | CNCC(O)COc1cccc(-c2cc(NCc3c(C)cc(C)nc3OC)c3cnn(C(C)C)c3n2)c1 (stereo not shown) [Example 6-9]
36 | 4.70 to 5.00 | CNCC(O)COc1cc(OC)cc(-c2cc(N3CCOCC3)nc3c(C4CC4)cnn23)c1 (stereo not shown) [Example 3-7]
37 | < 4.70 | CNCC(O)COc1cc(-c2cc(N3CCOCC3)c3cnn(C(C)C)c3n2)cc(C2CC2)c1 (stereo not shown) [Example 12-4]
38 | < 4.70 | CNCC(O)COc1cc(OC)cc(-c2cc(N(C)[C@H]3CCOC3)n3ncc(C(C)C)c3n2)c1 (stereo partly shown) [Example 36-6]
39 | < 4.70 | CNCC(O)COc1cccc(-c2nc(NCc3ccn(C)n3)c3cnn(C4CC4)c3n2)c1 (stereo not shown) [Example 25-5]
40 | < 4.70 | Cn1ccc(CNc2nc(-c3cccc(OCC(O)CN)c3)nc3c2cnn3C2CC2)n1 (stereo not shown) [Example 14-5]
41 | 4.70 to 5.00 | CNCC(O)COc1cc(NC)cc(-c2cc(NC3CCOCC3)c3cnn(C(C)C)c3n2)c1 (stereo not shown) [Example 13-4]
42 | < 4.70 | CNCC(O)COc1cccc(-c2cc(N[C@H]3CCOC3)n3ncc(C(C)C)c3n2)c1 (stereo partly shown) [Example 10-6]
43 | < 4.70 | CNCC(O)COc1cccc(-c2nc(N(C)C3CCOCC3)c3cnn(C(C)(C)C)c3n2)c1 (stereo not shown) [Example 36-5]
44 | < 4.70 | CNCC(O)COc1cc(OC)cc(-c2cc(-c3cnc4[nH]ccc4c3)c3cnn(C(C)C)c3n2)c1 (stereo not shown) [Example 5-9]
45 | < 4.70 | NCC(O)COc1cccc(-c2nc(NCc3ccncc3)c3cnn(C4CC4)c3n2)c1 (stereo not shown) [Example 12-5]
46 | < 4.70 | CN(c1cc(-c2cccc(OCC(O)CN)c2)nc2c(C(C)(C)C)cnn12)C1CCOCC1 (stereo not shown) [Example 10-9]
